# Assay results as given in the supplement of paper PMC10307832.
# How the values were obtained:
# Assay in all cases: relative viability (nuclei count vs DMSO), 5 days (fraction); higher = more cells survive
# NCI-H23 = test system: NCI-H23
# In short: (§1)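 Each reported value is a median over duplicate plates. It expresses relative viability: treated-well nuclei count divided by vehicle-well nuclei count. Lung cancer cell lines in 1536-well plates were dosed by pin tool a day after seeding, alone with one drug or with a fixed anchor-drug dose plus five library-drug doses (not always all listed) in √10 steps, and nuclei were counted after 5 days.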
# LXF-289 = test system: LXF-289
# In short: as §1
# NCI-H2126 = test system: NCI-H2126
# In short: as §1
# NCI-H1666 = test system: NCI-H1666
# In short: as §1
# NCI-H2342 = test system: NCI-H2342
# In short: as §1
# LCLC-97TM1 = test system: LCLC-97TM1
# In short: as §1
# LU99A = test system: LU99A
# In short: as §1
# NCI-H2170 = test system: NCI-H2170
# In short: as §1
# NCI-H1395 = test system: NCI-H1395
# In short: as §1
# LOU-NH91 = test system: LOU-NH91
# In short: as §1
# SK-LU-1 = test system: SK-LU-1
# In short: as §1
# NCI-H441 = test system: NCI-H441
# In short: as §1
# NCI-H2023 = test system: NCI-H2023
# In short: as §1
# NCI-H1915 = test system: NCI-H1915
# In short: as §1
# BEN = test system: BEN
# In short: as §1
# NCI-H322M = test system: NCI-H322M
# In short: as §1
# NCI-H1793 = test system: NCI-H1793
# In short: as §1
# NCI-H460 = test system: NCI-H460
# In short: as §1
# PC-3 [JPC-3] = test system: PC-3 [JPC-3]
# In short: as §1
# HARA = test system: HARA
# In short: as §1
# A-427 = test system: A-427
# In short: as §1
smiles,measurement,setting,value
COCC1(CO)C(=O)C2CCN1CC2 (centres undefined) [PRIMA-1MET] + O=C(CCCCCCC(=O)Nc1ccccc1)NO [Vorinostat] (partner 1 µM),relative viability,NCI-H23; first compound 0.2 µM,0.72
same,relative viability,NCI-H23; first compound 0.6325 µM,0.48
same,relative viability,NCI-H23; first compound 2 µM,0.482
same,relative viability,NCI-H23; first compound 6.325 µM,0.569
same,relative viability,NCI-H23; first compound 20 µM,0.0886
same,relative viability,LXF-289; first compound 0.2 µM,0.864
same,relative viability,LXF-289; first compound 0.6325 µM,0.628
same,relative viability,LXF-289; first compound 2 µM,0.79
same,relative viability,LXF-289; first compound 6.325 µM,0.796
same,relative viability,LXF-289; first compound 20 µM,0.745
same,relative viability,NCI-H2126; first compound 0.2 µM,0.784
same,relative viability,NCI-H2126; first compound 0.6325 µM,0.796
same,relative viability,NCI-H2126; first compound 2 µM,0.606
same,relative viability,NCI-H2126; first compound 6.325 µM,0.765
same,relative viability,NCI-H2126; first compound 20 µM,0.788
same,relative viability,NCI-H1666; first compound 0.2 µM,1.03
same,relative viability,NCI-H1666; first compound 0.6325 µM,0.915
same,relative viability,NCI-H1666; first compound 2 µM,1.05
same,relative viability,NCI-H1666; first compound 6.325 µM,1.07
same,relative viability,NCI-H1666; first compound 20 µM,0.956
same,relative viability,NCI-H2342; first compound 0.2 µM,0.694
same,relative viability,NCI-H2342; first compound 0.6325 µM,0.913
same,relative viability,NCI-H2342; first compound 6.325 µM,0.748
same,relative viability,NCI-H2342; first compound 20 µM,0.607
same,relative viability,LCLC-97TM1; first compound 0.2 µM,0.547
same,relative viability,LCLC-97TM1; first compound 0.6325 µM,0.675
same,relative viability,LCLC-97TM1; first compound 2 µM,0.747
same,relative viability,LCLC-97TM1; first compound 6.325 µM,0.791
same,relative viability,LCLC-97TM1; first compound 20 µM,0.464
same,relative viability,LU99A; first compound 0.2 µM,0.628
same,relative viability,LU99A; first compound 0.6325 µM,0.342
same,relative viability,LU99A; first compound 2 µM,0.54
same,relative viability,LU99A; first compound 6.325 µM,0.436
same,relative viability,LU99A; first compound 20 µM,0.113
same,relative viability,NCI-H2170; first compound 0.2 µM,1.05
same,relative viability,NCI-H2170; first compound 0.6325 µM,0.801
same,relative viability,NCI-H2170; first compound 2 µM,0.721
same,relative viability,NCI-H2170; first compound 6.325 µM,0.795
same,relative viability,NCI-H2170; first compound 20 µM,0.774
same,relative viability,NCI-H1395; first compound 0.2 µM,0.623
same,relative viability,NCI-H1395; first compound 2 µM,0.534
same,relative viability,NCI-H1395; first compound 6.325 µM,0.762
same,relative viability,NCI-H1395; first compound 20 µM,0.26
same,relative viability,LOU-NH91; first compound 0.2 µM,0.987
same,relative viability,LOU-NH91; first compound 0.6325 µM,0.878
same,relative viability,LOU-NH91; first compound 2 µM,0.759
same,relative viability,LOU-NH91; first compound 6.325 µM,0.863
same,relative viability,LOU-NH91; first compound 20 µM,0.296
same,relative viability,SK-LU-1; first compound 0.2 µM,0.852
same,relative viability,SK-LU-1; first compound 0.6325 µM,0.761
same,relative viability,SK-LU-1; first compound 2 µM,0.839
same,relative viability,SK-LU-1; first compound 6.325 µM,0.673
same,relative viability,SK-LU-1; first compound 20 µM,0.561
same,relative viability,NCI-H441; first compound 0.2 µM,0.689
same,relative viability,NCI-H441; first compound 0.6325 µM,0.6
same,relative viability,NCI-H441; first compound 2 µM,0.887
same,relative viability,NCI-H441; first compound 6.325 µM,0.96
same,relative viability,NCI-H441; first compound 20 µM,0.553
same,relative viability,NCI-H2023; first compound 0.2 µM,1.06
same,relative viability,NCI-H2023; first compound 0.6325 µM,0.474
same,relative viability,NCI-H2023; first compound 2 µM,0.442
same,relative viability,NCI-H2023; first compound 6.325 µM,0.734
same,relative viability,NCI-H2023; first compound 20 µM,0.254
same,relative viability,NCI-H1915; first compound 0.2 µM,0.605
same,relative viability,NCI-H1915; first compound 0.6325 µM,0.378
same,relative viability,NCI-H1915; first compound 2 µM,0.446
same,relative viability,NCI-H1915; first compound 6.325 µM,0.625
same,relative viability,NCI-H1915; first compound 20 µM,0.482
same,relative viability,BEN; first compound 0.2 µM,0.664
same,relative viability,BEN; first compound 0.6325 µM,0.389
same,relative viability,BEN; first compound 6.325 µM,0.571
same,relative viability,BEN; first compound 20 µM,0.613
same,relative viability,NCI-H322M; first compound 0.2 µM,1.05
same,relative viability,NCI-H322M; first compound 0.6325 µM,0.806
same,relative viability,NCI-H322M; first compound 6.325 µM,0.994
same,relative viability,NCI-H322M; first compound 20 µM,0.837
same,relative viability,NCI-H1793; first compound 0.2 µM,0.932
same,relative viability,NCI-H1793; first compound 0.6325 µM,0.488
same,relative viability,NCI-H1793; first compound 6.325 µM,0.797
same,relative viability,NCI-H1793; first compound 20 µM,0.762
same,relative viability,NCI-H460; first compound 0.2 µM,0.949
same,relative viability,NCI-H460; first compound 0.6325 µM,0.588
same,relative viability,NCI-H460; first compound 2 µM,0.686
same,relative viability,NCI-H460; first compound 6.325 µM,0.613
same,relative viability,NCI-H460; first compound 20 µM,0.0194
same,relative viability,PC-3 [JPC-3]; first compound 0.2 µM,0.964
same,relative viability,PC-3 [JPC-3]; first compound 0.6325 µM,0.579
same,relative viability,PC-3 [JPC-3]; first compound 2 µM,0.76
same,relative viability,PC-3 [JPC-3]; first compound 6.325 µM,1.03
same,relative viability,PC-3 [JPC-3]; first compound 20 µM,0.747
same,relative viability,HARA; first compound 0.2 µM,0.544
same,relative viability,HARA; first compound 0.6325 µM,0.266
same,relative viability,HARA; first compound 6.325 µM,0.587
same,relative viability,HARA; first compound 20 µM,0.499
same,relative viability,A-427; first compound 0.2 µM,1.1
same,relative viability,A-427; first compound 0.6325 µM,0.869
same,relative viability,A-427; first compound 2 µM,0.856
same,relative viability,A-427; first compound 6.325 µM,0.949
same,relative viability,A-427; first compound 20 µM,0.865
